Data as given in publication PMC12920416, “Preclinical development of [^18F]TAAR1-2203 as a PET radioligand for imaging TAAR1 expression and receptor occupancy” (European Journal of Nuclear Medicine and Molecular Imaging, 2025).

How the values were obtained:
[1] = Distribution coefficient (LogD), shake-flask method; assay type: physicochemical; conditions: n-octanol/PBS pH 7.4, n = 3, read-out: LogD7.4
Protocol: The distribution coefficient (LogD) was determined using the shake-flask method. Briefly, 500 µCi (18.5 MBq) of [^18F]TAAR1-2203 was added to a presaturated mixture of PBS (1.3 mL, pH 7.4) and n-octanol (3 mL). The mixture was vortexed for 5 min, after which 500 µL aliquots (n = 3) were transferred into separate tubes and centrifuged at 3500–4000 rpm for 5 min. Following centrifugation, 50 µL of the n-octanol phase and 500 µL of the aqueous phase were carefully sampled and transferred into pre-weighed gamma counter tubes. After weighing, radioactivity in each phase was quantified using a Packard Cobra 5002/5003 gamma counter. The LogD value at pH 7.4 was calculated based on the measured weights and the radioactivity distribution between the organic and aqueous phases, as previously reported.

[2] = Serum stability, mouse serum; assay type: in vitro ADME; conditions: 60 min, 37 °C
Protocol: (§1) The stability of [^18F]TAAR1-2203 was assessed in mouse, rat, NHP, and human serum. Aliquots (400 µL) of serum were preincubated at 37 °C for 5 min, followed by the addition of [^18F]TAAR1-2203 (20 µL, 300 µCi/11.1 MBq). After 60 min, 200 µL of each sample was collected, quenched with ice-cold MeCN (200 µL), centrifuged at 10,000 g for 5 min, and analyzed by radio-HPLC (XBridge C18 column, 3.5 μm, 4.6 mm × 150 mm; CH3CN/H2O 35:65 with 0.1% TEA; flow rate 1.0 mL/min). Experiments in PBS served as negative controls, and benfluorex hydrochloride was used as a positive control.

[3] = Serum stability, NHP serum; assay type: in vitro ADME, non-human primate; conditions: 60 min, 37 °C
Protocol: as §1

[4] = target: T1, TAAR1 (Mus musculus, UniProt Q923Y8); experiment: Ex vivo whole-body biodistribution, baseline and blockade; assay type: in vivo, CD1 mice
T1 construct: peripheral organs that express endogenous TAAR1; tissue Charles River (wild-type); F. Hoffmann-La Roche Ltd. (TAAR1 knock-out and matched controls); host or cells: mouse pancreas, kidney, liver, brain
Protocol: Female CD1 mice (16 weeks old, n = 4) received [^18F]TAAR1-2203 (15 µCi, 0.56 MBq in 100 µL saline) via tail vein injection. For blocking studies, TAAR1 agonist RO5425754 (4 mg/kg) dissolved in saline containing 10% DMSO and 5% Tween® 80 was administered shortly before tracer injection through the same i.v. catheter. Mice were sacrificed at 5, 15, 30, and 60 min post-injection (n = 4 per group), and organs were harvested, weighed, and measured for radioactivity using a Packard Cobra 5002/5003 gamma counter. Data were decay-corrected and expressed as percentage of injected dose per gram of wet tissue (%ID/g).

[5] = target: T1, TAAR1; experiment: Dynamic PET imaging, TAAR1 knockout vs wild-type mice; assay type: in vivo
Protocol: Dynamic PET imaging was performed for 60 min in female C57BL/6 mice, as well as in TAAR1 knock-out mice and respective controls, under 1–2% (v/v) isoflurane anaesthesia as previously reported. [^18F]TAAR1-2203 (1.5 MBq in 100 µL saline) was administered via tail vein injection. For blocking studies, TAAR1 agonist RO5425754 (4 mg/kg) was injected 5 min prior to radiotracer administration. Dynamic PET scans were acquired using a G8 PET/CT scanner (Sofie Biosciences, Culver, CA, USA) and analyzed with PMOD software (PMOD Technologies Ltd., Zurich, Switzerland). Radioactivity was decay-corrected and expressed as standardized uptake values (SUVs), normalized to body weight and injected dose.

[6] = Plasma protein binding of tracer, human plasma; assay type: in vitro ADME; conditions: radiotracer, 10 min incubation, ultrafiltration, read-out: Free fraction in human plasma
Protocol: (§2) Plasma protein binding of [^18F]TAAR1-2203 was determined in mouse, rat, NHP, and human plasma. Plasma samples (150 µL, n = 3) were preincubated at 37 °C for 5 min before addition of [^18F]TAAR1-2203 (10 µCi, 0.37 MBq). After 10 min of incubation, 300 µL of ice-cold PBS were added. Samples (300 µL) were then transferred onto Amicon® centrifugal filter units (10 kDa cut-off) and centrifuged at 2100 g for 15 min at 4 °C. Filtrates were washed with 300 µL PBS and centrifuged again. Radioactivity in the filtrate and protein-bound fractions was measured using a Packard Cobra 5002/5003 gamma counter.

[7] = Microsomal stability, NHP liver microsomes; assay type: in vitro ADME, non-human primate; conditions: after 60 min, 37 °C
Protocol: Microsomal stability of [^18F]TAAR1-2203 was evaluated using mouse, rat, NHP, and human liver microsomes. Potassium phosphate buffer (340 µL, 0.5 M, pH 7.4) was combined with NADPH regenerating solution (40 µL, 10 mM). Radiotracer solution (10 µL, 150 µCi, 5.5 MBq) was added, and the mixture was preincubated at 37 °C for 5 min. Liver microsomes (20 µL) were subsequently added. Incubations were carried out at 37 °C with gentle shaking. At 30 and 60 min, 200 µL aliquots were quenched with ice-cold MeCN (200 µL), centrifuged at 10,000 g for 5 min, and analyzed using an AR-2000 radio-TLC imaging scanner (Eckert & Ziegler).

[8] = Plasma protein binding of tracer, NHP plasma; assay type: in vitro ADME; conditions: non-human primate, radiotracer, 10 min incubation, ultrafiltration, read-out: Free fraction in NHP plasma
Protocol: as §2

[9] = Plasma protein binding of tracer, mouse plasma; assay type: in vitro ADME; conditions: radiotracer, 10 min incubation, ultrafiltration, read-out: Free fraction in mouse plasma
Protocol: as §2

[10] = baseline, i.v., initial uptake post-injection
[11] = blockade with RO5425754 4 mg/kg, 15 min post-injection, n = 4

T1 sequence (Q923Y8 whole entry): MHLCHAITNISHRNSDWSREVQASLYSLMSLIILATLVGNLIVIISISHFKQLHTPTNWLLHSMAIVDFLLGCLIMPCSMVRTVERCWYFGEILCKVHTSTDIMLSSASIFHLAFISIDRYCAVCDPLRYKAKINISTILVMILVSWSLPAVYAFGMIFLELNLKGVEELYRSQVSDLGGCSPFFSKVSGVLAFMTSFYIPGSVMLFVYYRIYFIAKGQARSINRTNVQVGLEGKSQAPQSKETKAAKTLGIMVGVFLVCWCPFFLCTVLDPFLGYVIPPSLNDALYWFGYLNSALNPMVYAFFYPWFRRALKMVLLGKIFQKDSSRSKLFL

For `Cc1c([18F])cccc1[C@H]1COC(N)=N1` [[^18F]TAAR1-2203], the logD [1] was 1.64 ± 0.01, the “Intact parent tracer in mouse serum” value [2] was over 99% and the “Intact parent tracer in NHP serum” value [3] was over 99%. The “Initial uptake in kidney” value [4, 10] was “exceeding 10 % ID/g”, the “Initial uptake in lung” value [4, 10] was “exceeding 10 % ID/g” and the “Initial uptake in pancreas” value [4, 10] was “exceeding 10 % ID/g”. The “Specific binding in the brain” value ([4]; blockade with RO5425754 4 mg/kg, 15 min post-injection) was “no specific binding was detected”, the “Specific binding in the kidney” value [4, 11] was 52.5 ± 14.3% and the “Specific binding in the liver” value [4, 11] was 30.2 ± 12.2%. For the same compound, the “Specific binding in the pancreas” value [4, 11] was 52.2 ± 15.2%, the “Kidney AUC0−60 min in TAAR1 KO vs WT mice” value [5] was “significant reduction” and the fraction unbound at 10 min [6] was about 0.6. The “Intact tracer in NHP liver microsomes” value [7] was over 99%, the fraction unbound at 10 min, 2.47 MBq/mL [8] was about 0.6 and the fraction unbound at 10 min, 2.47 MBq/mL [9] was about 0.6.
